Measurements reported in patent US5043322A, “Cyclic GRF analogs” (The Salk Institute for Biological Studies, priority 1988, dated 1991).
Where a SMILES comes first, the peptide text is derived from it. Bridges are numbered along the chain shown (N, C = ends). [ ]: non-standard residue; d: D form. NMeY = CN[C@@H](Cc1ccc(O)cc1)C(=O)O; Nle = CCCC[C@H](N)C(=O)O

Assays:
[1] = system: urethane-anesthetized male rats; assay: in vivo GH secretion after intravenous injection, blood GH by radioimmunoassay; parameters: species or system rat; settings: compared with 25 μg hGRF(1-40)--OH
Experimental: In addition to the in vitro tests for secretion of growth hormone, in vivo experiments inject the synthetic peptides intravenously into urethane-anesthetized male rats and determine that they trigger GH secretion. Blood samples are taken immediately prior to, and 10, 45 and 90 minutes after injections, and GH levels in blood are measured by radioimmunoassay. […] Dosages between about 400 nanograms and about 50 micrograms of these cyclic peptides per Kg. of body weight are considered to be effective in causing GH secretion.

[2] = system: cells of rat pituitary glands; assay: in vitro GH release from cultured rat pituitary cells, side-by-side with standard hGRF(1-40)--OH; format: cell-based; settings: equimolar concentrations, incubation 3 to 4 hours, ir GH in culture medium by radioimmunoassay
Experimental: All of these synthetic peptides are considered to be biologically active and potentially useful for stimulating the release of GH by the pituitary.
To determine the relative effectiveness of certain representative synthetic peptides to promote the release of growth hormone, in vitro assays are carried out using synthetic hGRF(1-40)--OH as a standard in side-by-side comparison with equimolar concentrations of the representative analogs which have been synthesized. Cultures are used which include cells of rat pituitary glands removed some three to five days previously. Such cultures are considered optimal for the secretion of growth hormone and are used for the comparative testing, in the general manner described in Vale et al. Endocrinology, 91, 562-572 (1972) and as more particularly described in Vale et al. Endocrinology, 112, 553-1555 (1983). Incubation with the substance to be tested is carried out for 3 to 4 hours, and aliquots of the culture medium are removed and processed to measure their contents in immunoreactive GH(ir GH) by a well-characterized radioimmunoassay.

| SMILES | in vivo response (blood GH) at 10 minutes ([1]; dosage of 1 μg) | in vivo response (blood GH) at 10 minutes ([1]; dosage of 5 μg) | biological potency for the secretion of GH relative to hGRF(1-40)--OH [2] |
| --- | --- | --- | --- |
| CCCC[C@@H]1NC(=O)[C@H]([C@@H](C)CC)NC(=O)[C@H](NC(=O)[C@H](Cc2c[nH]cn2)NC(=O)[C@H](CC(C)C)NC(=O)[C@H](CC(C)C)NC(=O)[C@H](CCCCN)NC(=O)[C@H](CCCNC(=N)N)NC(=O)[C@H](C)NC(=O)[C@H](Cc2ccc(O)cc2)NC(=O)[C@H](CC(C)C)NC(=O)[C@H](CCC(N)=O)NC(=O)[C@H](C)NC(=O)[C@H](CC(C)C)NC(=O)[C@@H](NC(=O)[C@H](CCCNC(=N)N)NC(=O)[C@H](CCCNC(=N)N)NC(=O)[C@H](Cc2ccc(O)cc2)NC(=O)[C@H](CO)NC(=O)[C@H](CO)NC(=O)[C@@H](NC(=O)[C@H](Cc2ccccc2)NC(=O)[C@@H](NC(=O)[C@H](C)NC(=O)[C@H](CC(=O)O)NC(=O)[C@H](C)NC(=O)[C@H](Cc2ccc(O)cc2)NC)[C@@H](C)CC)[C@@H](C)O)[C@@H](C)CC)CSSC[C@@H](C(N)=O)NC(=O)[C@H](CC(N)=O)NC1=O [Example I, [N^a MeTyr^1, Ala^15, D-Cys^25, Nle^27,Cys^29]-rGRF(1-29)-NH2] (H-[NMeY]ADAIFTSSYRRILAQLYARKLLH[dC]I[Nle]NC-NH2; disulfide 25-29) | greater than a 25 μg dose of hGRF(1-40)--OH |  |  |
| CCCC[C@@H]1NC(=O)[C@H]([C@@H](C)CC)NC(=O)[C@@H](NC(=O)[C@H](Cc2c[nH]cn2)NC(=O)[C@H](CC(C)C)NC(=O)[C@H](CC(C)C)NC(=O)[C@H](CCCCN)NC(=O)[C@H](CCCNC(=N)N)NC(=O)[C@H](C)NC(=O)[C@H](Cc2ccc(O)cc2)NC(=O)[C@H](CC(C)C)NC(=O)[C@H](CCC(N)=O)NC(=O)[C@H](C)NC(=O)[C@H](CC(C)C)NC(=O)[C@@H](NC(=O)[C@H](CCCNC(=N)N)NC(=O)[C@H](CCCNC(=N)N)NC(=O)[C@H](Cc2ccc(O)cc2)NC(=O)[C@H](CO)NC(=O)[C@H](CO)NC(=O)[C@@H](NC(=O)[C@H](Cc2ccccc2)NC(=O)[C@@H](NC(=O)[C@H](C)NC(=O)[C@H](CC(=O)O)NC(=O)[C@H](C)NC(=O)[C@H](Cc2ccc(O)cc2)NC)[C@@H](C)CC)[C@@H](C)O)[C@@H](C)CC)CSSC[C@H](C(N)=O)NC(=O)[C@H](CC(N)=O)NC1=O [Example IA, [N^a MeTyr^1,Ala^15,Cys^25,Nle^27,D-Cys^29]-rGRF(1-29)-NH2] (H-[NMeY]ADAIFTSSYRRILAQLYARKLLHCI[Nle]N[dC]-NH2; disulfide 25-29) |  | greater than a 25 μg dose of hGRF(1-40)--OH | about twice |
